{"source": "patent US5721229A", "about": "“Soluble forms of cephalosporins and treatment of animals” (Veterinary Pharmacy Corporation, priority 1995, dated 1998)", "key": {"[1]": {"details": "cited from earlier work"}, "[2]": {"details": "pH 4.5; cited from earlier work"}, "all bacteria": {"test_system": "all bacteria", "assay": "Sensitivity results by the University Diagnostic Laboratory, all bacteria (Example 6 table)", "description": "(§1) The mixture and solution of the invention was tested in 100 to 200 pound pigs. […] A 30 pig pen was used as a non-treated control group to measure the efficacy of the treatment."}, "[3]": {"test_system": "Actinobacillis pleuropneumonia Type 7", "description": "as §1"}}, "note": "Read-outs that look alike come from different tables or passages of the source."}
{"smiles": "CC1(C)S[C@@H]2[C@H](NC(=O)[C@H](N)c3ccccc3)C(=O)N2[C@H]1C(=O)O", "note": "[ampicillin]", "values": [{"measurement": "pH on dissolution with sodium carbonate", "setting": "[1]; 95 mole-% of sodium carbonate", "value": 8.3}, {"measurement": "Mole-% of sodium carbonate sufficient to dissolve", "setting": "[1]; pH 8.3", "value": 95, "unit": "mole-%"}]}
{"smiles": "CC1=C(C(=O)O)N2C(=O)[C@@H](NC(=O)[C@H](N)c3ccccc3)[C@H]2SC1", "note": "[cephalexin monohydrate]", "values": [{"measurement": "Neutrally charged fraction", "setting": "[2]", "value": 100, "unit": "%"}]}
{"smiles": "CC1=C(C(=O)O)N2C(=O)[C@@H](NC(=O)[C@H](N)c3ccccc3)[C@H]2SC1", "note": "[cephalexin, α-aminobenzyl-3-desacetoxycephalosporin]", "values": [{"measurement": "Sensitivity of the organism", "setting": "Step suis type 2; isolates from treated group", "value": "sensitive"}, {"measurement": "Sensitivity of the organism", "setting": "Step suis type 2; isolates from untreated control group", "value": "sensitive"}, {"measurement": "Sensitivity to cephalexin", "setting": "Streptococcus suis Sp.", "value": "showed sensitivity"}, {"measurement": "Sensitivity results by the University Diagnostic Laboratory", "setting": "all bacteria; control group of 30 pigs", "value": "sensitive to cephalexin"}, {"measurement": "Sensitivity results by the University Diagnostic Laboratory", "setting": "all bacteria; treated group of 970 pigs", "value": "sensitive to cephalexin"}, {"measurement": "Sensitivity to cephalexin", "setting": "[3]", "value": "showed sensitivity"}, {"measurement": "Sensitivity to cephalexin", "setting": "Pasturella multocida", "value": "showed sensitivity"}]}
{"smiles": "CC1(C)S[C@@H]2[C@H](NC(=O)[C@H](N)c3ccccc3)C(=O)N2[C@H]1C(=O)O", "note": "[sodium ampicillin]", "values": [{"measurement": "pH of aqueous solution", "setting": "[1]; aqueous solution", "value": "~9.5"}]}
